Source: patent US20120165319A1, “INHIBITORS OF INTERLEUKIN-1 BETA CONVERTING ENZYME” (VERTEX PHARMACEUTICALS INCORPORATED, priority 1995, published 2012)
Where two headings read alike, the source gives them in different places.

How the values were obtained:
[1] = target: T1, ICE (Homo sapiens, UniProt P29466); assay: Enzyme assay with UV-visible substrate (visible ICE assay, Succinyl-Tyr-Val-Ala-Asp-pNitroanilide); format: biochemical
T1 sequence (P29466 120-297 limits assumed): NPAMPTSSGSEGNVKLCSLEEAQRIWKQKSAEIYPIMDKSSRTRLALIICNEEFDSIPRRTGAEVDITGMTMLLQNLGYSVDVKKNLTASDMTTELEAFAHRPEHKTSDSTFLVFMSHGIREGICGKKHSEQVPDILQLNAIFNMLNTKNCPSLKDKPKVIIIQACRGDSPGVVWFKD
T1 sequence (P29466 317-404 limits assumed): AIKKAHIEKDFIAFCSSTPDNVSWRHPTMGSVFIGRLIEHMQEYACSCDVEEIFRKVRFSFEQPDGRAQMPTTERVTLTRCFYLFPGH
Summary of the method: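 Read-out is the rate of pNA chromophore release (mOD/min, linear fit) monitored at 405-603 nm over 20 min at 37° C. Substrate was succinyl-Tyr-Val-Ala-Asp-pNitroanilide, added after a 15 min room-temperature preincubation of ICE with inhibitor.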

[2] = system: IL-1β, human peripheral blood mononuclear cells (PBMC); assay: PBMC cell assay: IL-1β assay with human PBMC or enriched adherent mononuclear cells, LPS-stimulated; format: cell-based
Summary of the method: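 Buffy-coat human PBMC at 6×10^6 cells/ml, or adherent monocytes enriched by 1 h adherence (2.5−3.0×10^5 cells/well), are given 5–6 compound dilutions bracketing the ICE Ki (final DMSO 0.1%) plus LPS at a final 5 ng/ml. They are incubated 16–18 hr at 37 °C, 5% CO2, and supernatant mature IL-1β is measured by ELISA, with duplicate cultures and duplicate ELISAs.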

[3] = system: IL-1β, human whole blood; assay: Whole blood assay for IL-1β production; format: cell-based; conditions: read-out: Whole human blood IC50
Summary of the method: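 Human whole blood collected on Na2EDTA was treated with serially diluted compound in saline and then stimulated with LPS at 5.0 ng/ml final, for 16-18 h at 30 °C, in duplicate or triplicate. Plasma IL-1β was measured by ELISA at 1:200 dilution.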

[4] = Homo sapiens, PBMC, * = values obtained upon reassay
[5] = Homo sapiens, * = values obtained upon reassay
[6] = * = values obtained upon reassay

SMILES | Ki ([1]; Table 17) [nM] | IC50 ([2]; Homo sapiens, PBMC, Table 17) [nM] | IC50 ([3]; Homo sapiens, Table 17) [nM] | Ki ([1]; Table 5) [nM] | IC50 [2, 4] [nM] | IC50 [3, 5] [nM] | IC50 [3, 6] [nM] | IC50 [2, 6] [nM]
O=C[C@H](CC(=O)O)NC(=O)[C@@H]1CCCN2C(=O)CC[C@H](NC(=O)C(=O)Nc3ccc(Cl)cc3)C(=O)N12 [Compound 500] | 25 | 1800 | 1800 | – | – | – | – | –
O=C[C@H](CC(=O)O)NC(=O)[C@@H]1CCCN2C(=O)CC[C@H](NC(=O)c3ccc(NC(=O)c4ccccc4)cc3)C(=O)N12 [Compound 483] | – | – | – | 1.7 | 900 | 700 | – | –
CCn1nc(C)cc1C(=O)N[C@H]1CCC(=O)N2CCC[C@@H](C(=O)N[C@H](C=O)CC(=O)O)N2C1=O [Compound 422] | – | – | – | 50 | 2200 | 1200 | – | –
COc1ccccc1C(=O)C(=O)N[C@H]1CN(C(=O)CO)c2ccccc2N(CC(=O)N[C@H](C=O)CC(=O)O)C1=O [Compound 921] | 8.5 | 1800 | 3000 | – | – | – | – | –
CCC(=O)Nc1ccc(C(=O)N[C@H]2CCC(=O)N3CCC[C@@H](C(=O)N[C@H](C=O)CC(=O)O)N3C2=O)cc1 [Compound 485] | – | – | – | 2 | 900 | 900 | – | –
O=C[C@H](CC(=O)O)NC(=O)CN1C(=O)[C@@H](NC(=O)c2ccccc2)CN(C(=O)CCc2ccccc2)c2ccccc21 [Compound 605a, (3S)-3-[(3S)-2-oxo-3-benzoylamino-5-(3-phenylpropionyl)-2,3,4,5-tetrahydro-1H-1,5-benzodiazepin-1-acetylamino-]4-oxo-butyric acid] | – | – | – | 90 | 2600 | > 20000 | – | –
COc1cc(C(=O)N[C@H]2CCC(=O)N3CCC[C@@H](C(=O)N[C@H](C=O)CC(=O)O)N3C2=O)nc2ccccc12 [Compound 437] | – | – | – | 12 | 1800 | 5000 | – | –
O=C[C@H](CC(=O)O)NC(=O)[C@@H]1CCCN2C(=O)CC[C@H](NC(=O)c3cccc4cccnc34)C(=O)N12 [Compound 439] | – | – | – | 3.7 | 2800 | 3200 | 3400 | –
COc1c(C)cc(C(=O)N[C@H]2CN(C(=O)CO)c3ccccc3N(CC(=O)N[C@H](C=O)CC(=O)O)C2=O)cc1C [Compound 694, (3S)-3-[(3S)-2-Oxo-3-(3,5-dimethyl-4-methoxybenzoyl)amino-5-hydroxyacetyl-2,3,4,5-tetrahydro-1H-1,5-benzodiazepine-1-acetylamino-]4-oxo-butyric acid] | 3 | 2600 | 2100 | – | – | – | – | –
O=C[C@H](CC(=O)O)NC(=O)[C@@H]1CCCN2C(=O)CC[C@H](NC(=O)c3ccc(O)c(Cl)c3)C(=O)N12 [Compound 498] | – | – | – | 1.5 | 560 | 500 | 400 | –
CC(=O)N1C[C@H](NC(=O)c2cccc3ccccc23)C(=O)N(CC(=O)N[C@H](C=O)CC(=O)O)c2ccccc21 [Compound 621] | – | – | – | 7.2 | 1300 | > 20000 | – | –
O=C[C@H](CC(=O)O)NC(=O)[C@@H]1CCCN2C(=O)CC[C@H](NC(=O)c3ccc(OCc4ccccc4)cc3)C(=O)N12 [Compound 499] | – | – | – | 3.5 | 1200 | 9000 | – | 800
Cc1cc2c(cc1C(=O)N[C@H]1CCC(=O)N3CCC[C@@H](C(=O)N[C@H](C=O)CC(=O)O)N3C1=O)OCO2 [Compound 473] | – | – | – | 1 | 1000 | 400 | 450 | –
O=C[C@H](CC(=O)O)NC(=O)[C@@H]1CCCN2C(=O)CC[C@H](NC(=O)c3ccc4ccccc4c3)C(=O)N12 [Compound 407] | – | – | – | 0.4 | 540 | 1700 | – | –
O=C[C@H](CC(=O)O)NC(=O)CN1C(=O)[C@@H](NC(=O)C(=O)c2ccccc2)CN(C(=O)CO)c2ccccc21 [Compound 681, (3S)-3-[(3S)-2-Oxo-3-benzoylformylamino-5-(2-hydroxy)acetyl-2,3,4,5-tetrahydro-1H-1,5-benzodiazepine-1-acetylamino]-4-oxo-butyric acid] | 9 | 3000 | 5000 | – | – | – | – | –
O=C[C@H](CC(=O)O)NC(=O)CN1C(=O)[C@@H](NC(=O)c2ccc(O)cc2)CN(C(=O)CO)c2ccccc21 [Compound 691b, (3S)-3-[(3S)-2-Oxo-3-(4-hydroxybenzoyl)amino-5-hydroxyacetyl-2,3,4,5-tetrahydro-1H-1,5-benzodiazepine-1-acetylamino]-4-oxo-butyric acid] | 11.5 | 1900 | 1400 | – | – | – | – | –
Nc1cc2ccccc2cc1C(=O)N[C@H]1CCC(=O)N2CCC[C@@H](C(=O)N[C@H](C=O)CC(=O)O)N2C1=O [Compound 440] | – | – | – | 2.3 | 5000 | 2000 | – | –
O=C(O)CC(NC(=O)[C@@H]1CCCN2C(=O)CC[C@H](NC(=O)c3ccccc3)C(=O)N12)C(=O)COCc1ccccc1Cl (stereo partly drawn) [Compound 227e] | – | – | – | 7 | 234 | 550 | – | –
COCC(=O)N1C[C@H](NC(=O)c2cc(C)c(O)c(C)c2)C(=O)N(CC(=O)N[C@H](C=O)CC(=O)O)c2ccccc21 [Compound 689b, (3S)-3-[(3S)-2-Oxo-3-(3,5-dimethyl-4-hydroxybenzoyl)amino-5-methoxyacetyl-2,3,4,5-tetrahydro-1H-1,5-benzodiazepine-1-acetylamino]-4-oxo-butyric acid] | 2.2 | 600 | 2000 | – | – | – | – | –
CC(=O)N1C[C@H](NC(=O)c2nccc3ccccc23)C(=O)N(CC(=O)N[C@H](C=O)CC(=O)O)c2ccccc21 [Compound 620] | – | – | – | 35 | 1000 | 19000 | – | –
O=C[C@H](CC(=O)O)NC(=O)[C@@H]1CCCN2C(=O)CC[C@H](NC(=O)c3ccc(OC(=O)c4ccc(O)cc4)cc3)C(=O)N12 [Compound 457] | – | – | – | 6.2 | 2000 | 3500 | – | –
Cc1c(Cl)cccc1C(=O)N[C@H]1CCC(=O)N2CCC[C@@H](C(=O)N[C@H](C=O)CC(=O)O)N2C1=O [Compound 465] | – | – | – | 3 | 1000 | 800 | – | –
CC(=O)N1C[C@H](NC(=O)C(=O)c2ccc3c(c2)OCO3)C(=O)N(CC(=O)N[C@H](C=O)CC(=O)O)c2ccccc21 [Compound 702] | 45 | > 5000 | 20000 | – | – | – | – | –
O=C[C@H](CC(=O)O)NC(=O)[C@@H]1CCCN2C(=O)CC[C@H](NC(=O)c3ccc4cc(O)ccc4c3)C(=O)N12 [Compound 425] | – | – | – | 0.8 | 650 | 650 | – | 700
O=C[C@H](CC(=O)O)NC(=O)CN1C(=O)[C@@H](NC(=O)c2cc3ccccc3[nH]2)CN(C(=O)CO)c2ccccc21 [Compound 919] | 4 | 2000 | 4300 | – | – | – | – | –
O=C[C@H](CC(=O)O)NC(=O)[C@@H]1CCCN2C(=O)CC[C@H](NC(=O)c3c(Cl)cccc3Cl)C(=O)N12 [Compound 444] | – | – | – | 15 | 3500 | 3500 | – | –
O=C[C@H](CC(=O)O)NC(=O)[C@@H]1CCCN2C(=O)CC[C@H](NC(=O)c3ccc4nn[nH]c4c3)C(=O)N12 [Compound 432] | – | – | – | 1.6 | 560 | 2000 | – | –
CC(=O)N1C[C@H](NC(=O)C(=O)c2ccccc2)C(=O)N(CC(=O)N[C@H](C=O)CC(=O)O)c2ccccc21 [Compound 635] | – | – | – | 55 | 1900 | 4000 | – | 3400
Cc1cc(C(=O)N[C@H]2CCC(=O)N3CCC[C@@H](C(=O)N[C@H](C=O)CC(=O)O)N3C2=O)no1 [Compound 424] | – | – | – | 45 | 2500 | 4000 | – | –
